Common to all, as to type: cell-based
In one experiment the test system is DLD-1. Briefly: MTS assay (cell growth inhibition), DLD-1. The following applies: DLD-1 cells, 72 hours incubation with test compound; concentration not given. In outline:
(§1)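 First, seed 3000 cells per well in low-serum (1% FBS) DMEM and culture 18 h. Next, add compounds prepared at 300× in DMSO and diluted 1:40 in DMEM; incubate 72 h. Finally, add MTS/PMS for 4 h and measure absorbance at 492 nm.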
(In general: Formazan colour is commonly taken as a measure of viable cells.)

Another experiment relates to Kato III. Briefly: MTS assay (cell growth inhibition), Kato III. Conditions: Kato III cells, 72 hours incubation with test compound; concentration not given. In outline: as §1
For the next experiment, the system named is MDA-MB. Briefly: MTS assay (cell growth inhibition), MDA-MB. The following applies: MDA-MB cells, 72 hours incubation with test compound; concentration not given. In outline: as §1
The test system of the next experiment is NCI-H1299. Description: MTS assay (cell growth inhibition), NCI-H1299. Conditions: NCI-H1299 cells, 72 hours incubation with test compound; concentration not given. The gist of the method:
as §1

The next experiment concerns PACA-2. Briefly: MTS assay (cell growth inhibition), PACA-2. The following applies: PACA-2 cells, 72 hours incubation with test compound; concentration not given. In outline: as §1
Another experiment relates to PC-3. Briefly: MTS assay (cell growth inhibition), PC-3. Conditions: PC-3 cells, 72 hours incubation with test compound; concentration not given. The gist of the method: as §1

The structures appear in SMILES notation.

For `Cc1ccc(OCCN2C(=O)c3cnc4[nH]ncc4c3C2=O)cc1` [Example 125, 7-[2-(4-methylphenoxy)ethyl]pyrazolo[3,4-b]pyrrolo[3,4-d]pyridine-6,8(3H,7H)-dione], the “MTS CELL KILL DATA (% INHIBITION) DLD-1” value with DLD-1 is recorded as “C (C = <50% INHIBITION)”. Besides, the “MTS CELL KILL DATA (% INHIBITION) Kato III” value in the experiment on Kato III was “C (C = <50% INHIBITION)”. Also, the “MTS CELL KILL DATA (% INHIBITION) MDA-MB” value in the experiment with MDA-MB is “A (A = 80-100% INHIBITION)”. Also, the “MTS CELL KILL DATA (% INHIBITION) NCI-H1299” value in the experiment on NCI-H1299 is “C (C = <50% INHIBITION)”. Also, in the experiment on PACA-2, the “MTS CELL KILL DATA (% INHIBITION) PACA-2” value is “A (A = 80-100% INHIBITION)”. Also, the “MTS CELL KILL DATA (% INHIBITION) PC-3” value in the experiment with PC-3 was “A (A = 80-100% INHIBITION)”.

Take `O=C1c2cnc3[nH]ncc3c2C(=O)N1CCc1c2ccccc2cc2ccccc12` [Example 129, 7-[2-(9-anthryl)ethyl]pyrazolo[3,4-b]pyrrolo[3,4-d]pyridine-6,8(3H,7H)-dione]: the “MTS CELL KILL DATA (% INHIBITION) DLD-1” value with DLD-1 is reported as “A (A = 80-100% INHIBITION)”. In the experiment on Kato III, the “MTS CELL KILL DATA (% INHIBITION) Kato III” value is recorded as “C (C = <50% INHIBITION)”. Moreover, the “MTS CELL KILL DATA (% INHIBITION) MDA-MB” value in the experiment on MDA-MB is on record as “A (A = 80-100% INHIBITION)”. The “MTS CELL KILL DATA (% INHIBITION) NCI-H1299” value with NCI-H1299 is recorded as “C (C = <50% INHIBITION)”. Moreover, the “MTS CELL KILL DATA (% INHIBITION) PACA-2” value in the experiment with PACA-2 is given as “C (C = <50% INHIBITION)”. Moreover, the “MTS CELL KILL DATA (% INHIBITION) PC-3” value in the experiment on PC-3 was “A (A = 80-100% INHIBITION)”.

In the case of `O=C1c2ccccc2C(=O)N1CCN1C(=O)c2cnc3[nH]ncc3c2C1=O` [Example 131, 7-[2-(1,3-dioxo-1,3-dihydro-2H-isoindol-2-yl)ethyl]pyrazolo[3,4-b]pyrrolo[3,4-d]pyridine-6,8(3H,7H)-dione], the “MTS CELL KILL DATA (% INHIBITION) DLD-1” value in the experiment with DLD-1 is recorded as “A (A = 80-100% INHIBITION)”. In the experiment on Kato III, the “MTS CELL KILL DATA (% INHIBITION) Kato III” value is “A (A = 80-100% INHIBITION)”. In addition, in the experiment on MDA-MB, the “MTS CELL KILL DATA (% INHIBITION) MDA-MB” value is recorded as “A (A = 80-100% INHIBITION)”. Moreover, the “MTS CELL KILL DATA (% INHIBITION) NCI-H1299” value in the experiment on NCI-H1299 is given as “A (A = 80-100% INHIBITION)”. Moreover, the “MTS CELL KILL DATA (% INHIBITION) PACA-2” value with PACA-2 is given as “A (A = 80-100% INHIBITION)”. The “MTS CELL KILL DATA (% INHIBITION) PC-3” value in the experiment on PC-3 was “A (A = 80-100% INHIBITION)”.

`Cc1cccc(N(CCC#N)CCN2C(=O)c3cnc4[nH]ncc4c3C2=O)c1` [Example 134, 3-{[2-(6,8-dioxo-6,8-dihydropyrazolo[3,4-b]pyrrolo[3,4-d]pyridin-7(3H)-yl)ethyl](3-methylphenyl)amino}propanenitrile]: the “MTS CELL KILL DATA (% INHIBITION) DLD-1” value in the experiment with DLD-1 is reported as “C (C = <50% INHIBITION)”. Moreover, the “MTS CELL KILL DATA (% INHIBITION) Kato III” value in the experiment on Kato III is “C (C = <50% INHIBITION)”. In the experiment on MDA-MB, the “MTS CELL KILL DATA (% INHIBITION) MDA-MB” value is “C (C = <50% INHIBITION)”. Besides, the “MTS CELL KILL DATA (% INHIBITION) NCI-H1299” value in the experiment on NCI-H1299 is “C (C = <50% INHIBITION)”. Moreover, in the experiment on PACA-2, the “MTS CELL KILL DATA (% INHIBITION) PACA-2” value was “C (C = <50% INHIBITION)”. Further, the “MTS CELL KILL DATA (% INHIBITION) PC-3” value in the experiment on PC-3 is “C (C = <50% INHIBITION)”.

In the case of `O=C1c2cnc3[nH]ncc3c2C(=O)N1Cc1ccc(Cl)c(C(F)(F)F)c1` [Example 136, 7-[4-chloro-3-(trifluoromethyl)benzyl]pyrazolo[3,4-b]pyrrolo[3,4-d]pyridine-6,8(3H,7H)-dione], the “MTS CELL KILL DATA (% INHIBITION) DLD-1” value in the experiment with DLD-1 is given as “C (C = <50% INHIBITION)”. Besides, the “MTS CELL KILL DATA (% INHIBITION) Kato III” value in the experiment with Kato III is “C (C = <50% INHIBITION)”. In the experiment on MDA-MB, the “MTS CELL KILL DATA (% INHIBITION) MDA-MB” value is listed as “C (C = <50% INHIBITION)”. For the same compound, the “MTS CELL KILL DATA (% INHIBITION) NCI-H1299” value in the experiment with NCI-H1299 is “C (C = <50% INHIBITION)”. Moreover, in the experiment with PACA-2, the “MTS CELL KILL DATA (% INHIBITION) PACA-2” value is “C (C = <50% INHIBITION)”. Besides, in the experiment with PC-3, the “MTS CELL KILL DATA (% INHIBITION) PC-3” value is “C (C = <50% INHIBITION)”.

For the compound `O=C1c2cnc3[nH]nc(-c4cncnc4)c3c2C(=O)N1CCc1ccccc1` [Example 151, 7-(2-phenylethyl)-1-pyrimidin-5-ylpyrazolo[3,4-b]pyrrolo[3,4-d]pyridine-6,8(3H,7H)-dione], the “MTS CELL KILL DATA (% INHIBITION) DLD-1” value with DLD-1 was “A (A = 80-100% INHIBITION)”. Moreover, the “MTS CELL KILL DATA (% INHIBITION) Kato III” value with Kato III is “A (A = 80-100% INHIBITION)”. The “MTS CELL KILL DATA (% INHIBITION) MDA-MB” value in the experiment on MDA-MB is recorded as “C (C = <50% INHIBITION)”. Also, in the experiment with NCI-H1299, the “MTS CELL KILL DATA (% INHIBITION) NCI-H1299” value is on record as “C (C = <50% INHIBITION)”. In addition, in the experiment with PACA-2, the “MTS CELL KILL DATA (% INHIBITION) PACA-2” value was “A (A = 80-100% INHIBITION)”. In the experiment on PC-3, the “MTS CELL KILL DATA (% INHIBITION) PC-3” value is reported as “B (B = 50-79% INHIBITION)”.

Values taken from US8906928B2, “Substituted pyrazolo-pyrrolo-pyridine-dione compounds” (ArQule, Inc., priority 2009, dated 2014).
